From patent publication US12624034B2, “Non-covalent modifiers of AKT1 and uses thereof” (Terremoto Biosciences, Inc., priority 2023, dated 2026)
Like-named read-outs stand apart in the source and are kept apart here.

Experiments:
AKT1 WT = target: T1, AKT1 WT (Homo sapiens, UniProt P31749); assay: Live cell AKT1 WT target engagement by NanoBRET competitive probe displacement in HEK293 cells; format: binding; details: 2 h at 37° C., read-out: AKT1 WT IC50
T1 construct: expressed in transfected cells; host or cells: HEK293
T1 sequence (P31749 whole entry): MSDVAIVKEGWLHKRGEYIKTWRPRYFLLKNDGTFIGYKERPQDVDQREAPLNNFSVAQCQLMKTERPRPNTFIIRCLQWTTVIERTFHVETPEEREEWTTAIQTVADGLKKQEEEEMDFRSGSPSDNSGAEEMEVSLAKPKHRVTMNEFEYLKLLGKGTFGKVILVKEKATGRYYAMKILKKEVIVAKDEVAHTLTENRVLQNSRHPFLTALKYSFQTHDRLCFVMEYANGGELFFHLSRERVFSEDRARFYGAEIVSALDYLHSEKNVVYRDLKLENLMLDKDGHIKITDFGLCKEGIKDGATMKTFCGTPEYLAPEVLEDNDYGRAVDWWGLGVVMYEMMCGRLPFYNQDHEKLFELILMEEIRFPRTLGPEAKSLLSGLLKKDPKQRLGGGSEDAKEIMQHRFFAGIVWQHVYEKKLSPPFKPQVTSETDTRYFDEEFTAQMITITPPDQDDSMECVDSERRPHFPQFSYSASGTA

AKT2 = target: T2, AKT2 (Homo sapiens, UniProt P31751); assay: Live cell AKT2 target engagement by NanoBRET competitive probe displacement in HEK293 cells; format: binding; details: 2 h at 37° C., read-out: AKT2 IC50
T2 construct: expressed in transfected cells; host or cells: HEK293
T2 sequence (P31751 whole entry): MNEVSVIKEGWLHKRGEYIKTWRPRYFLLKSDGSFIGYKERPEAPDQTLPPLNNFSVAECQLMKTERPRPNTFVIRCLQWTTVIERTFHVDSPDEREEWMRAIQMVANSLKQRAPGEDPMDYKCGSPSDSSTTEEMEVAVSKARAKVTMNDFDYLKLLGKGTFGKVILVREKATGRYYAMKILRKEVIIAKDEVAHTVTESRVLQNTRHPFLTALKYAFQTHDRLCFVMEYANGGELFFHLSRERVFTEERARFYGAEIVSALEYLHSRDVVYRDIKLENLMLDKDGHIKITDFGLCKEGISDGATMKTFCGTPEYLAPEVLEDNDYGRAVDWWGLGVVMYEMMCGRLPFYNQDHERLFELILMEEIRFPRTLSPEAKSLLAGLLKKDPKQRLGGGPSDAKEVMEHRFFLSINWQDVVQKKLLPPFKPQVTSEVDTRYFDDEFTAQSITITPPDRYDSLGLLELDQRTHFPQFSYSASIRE

[1] = NanoBRET live cell target engagement, HEK293 cells
[2] = NanoBRET competitive probe displacement, live HEK293 cells

## Nc1ncccc1-c1nc2ccc(-n3cccn3)nc2n1-c1ccc2c(c1)CC[C@H]2n1ccnn1 [Compound 227]
AKT1 WT; [1]
  IC50: > 1000 nM
AKT2; [1]
  IC50: > 10000 nM

## Nc1ncccc1-c1nc2ccc(-c3ccn(C(F)F)n3)nc2n1-c1ccc2c(c1)CC[C@@H]2NC1CCN(C(=O)C2CC2)CC1 [Compound 434]
AKT1 WT; [2]
  IC50: 57.7 nM
AKT2; [2]
  IC50: 1300 nM

## Nc1ncccc1-c1nc2ccc(C#CC3CCCC3)nc2n1-c1ccc2c(c1)CC[C@@H]2NC(=O)c1ccc(C(F)F)nc1 [Compound 460]
AKT1 WT; [2]
  IC50: 33.6 nM
AKT2; [2]
  IC50: 6180 nM

## COc1cc(-n2cccn2)nc2c1nc(-c1cccnc1N)n2-c1ccc2c(c1)CC[C@@H]2NC(=O)c1cccnc1C [Compound 124]
AKT1 WT; [1]
  IC50: 13.9 nM
AKT2; [1]
  IC50: 54.8 nM

## Nc1ncccc1-c1nc2ccc(-n3nccn3)nc2n1-c1ccc2c(c1)CC[C@@H]2NC(=O)c1cccnc1C(F)F [Compound 107]
AKT1 WT; [1]
  IC50: 118 nM
AKT2; [1]
  IC50: > 10000 nM

## COc1ncccc1C(=O)N[C@H]1CCc2cc(-n3c(-c4cccnc4N)nc4ccc(-n5cccn5)nc43)ccc21 [Compound 128]
AKT1 WT; [1]
  IC50: 34.4 nM
AKT2; [1]
  IC50: 442 nM

## Cc1cnc(C(=O)N[C@H]2CCc3cc(-n4c(-c5cccnc5N)nc5ccc(-n6cccn6)nc54)ccc32)c(C)n1 [Compound 207]
AKT1 WT; [1]
  IC50: 151 nM
AKT2; [1]
  IC50: 2520 nM

## Nc1ncccc1-c1nc2ccc(-c3ccn(C(F)F)n3)nc2n1-c1ccc2c(c1)CC[C@@H]2n1ccnn1 [Compound 315]
AKT1 WT; [1]
  IC50: 23.9 nM
AKT2; [1]
  IC50: 617 nM

## Nc1ncccc1-c1nc2ccc(-n3cccn3)nc2n1-c1ccc2c(c1)CC[C@@H]2NC(=O)c1cnc(C(F)F)s1 [Compound 376]
AKT1 WT; [1]
  IC50: 8.07 nM
AKT2; [1]
  IC50: 151 nM

## CC(=O)NCC#Cc1ccc2nc(-c3cccnc3N)n(-c3ccc4c(c3)CC[C@@H]4NC(=O)c3ccc(C)nc3)c2n1 [Compound 327]
AKT1 WT; [1]
  IC50: 526 nM
AKT2; [1]
  IC50: 6850 nM

## Nc1ncccc1-c1nc2ccc(-n3nccn3)nc2n1-c1ccc2c(c1)CC[C@@H]2NC(=O)c1cnc(C(F)(F)F)s1 [Compound 526]
AKT1 WT; [2]
  IC50: 20.2 nM
AKT2; [2]
  IC50: 1260 nM

## CC(C)C(=O)N1CCC(N[C@@H]2c3ccc(-n4c(-c5cccnc5N)nc5ccc(-n6cccn6)nc54)cc3CC2F)CC1 (some centres unmarked) [Compound 542]
AKT1 WT; [2]
  IC50: 117 nM
AKT2; [2]
  IC50: 2330 nM

## Nc1ncccc1-c1nc2ccc(-n3cccn3)nc2n1-c1ccc2c(c1)CC[C@@H]2NC(=O)Nc1ccccc1 [Compound 133]
AKT1 WT; [1]
  IC50: 76.2 nM
AKT2; [1]
  IC50: 1340 nM

## CC#Cc1ccc2nc(-c3cccnc3N)n(-c3ccc4c(c3)CC[C@@H]4NC(=O)c3ccc(C)nc3)c2n1 [Compound 265]
AKT1 WT; [1]
  IC50: 35.9 nM
AKT2; [1]
  IC50: 1870 nM

## Nc1ncccc1-c1nc2ccc(-n3cccn3)nc2n1-c1ccc2c(c1)CC(F)[C@@H]2NC1CN(c2ccccn2)C1 (some centres unmarked) [Compound 208]
AKT1 WT; [1]
  IC50: 32.4 nM
AKT2; [1]
  IC50: 1030 nM

## Nc1ncccc1-c1nc2ccc(-n3cccn3)nc2n1-c1ccc2c(c1)CC[C@@H]2NC(=O)c1ccc(F)c(O)c1 [Compound 293]
AKT1 WT; [1]
  IC50: 12.3 nM
AKT2; [1]
  IC50: 83.8 nM

## C#Cc1cc(C(=O)N[C@H]2CCc3cc(-n4c(-c5cccnc5N)nc5ccc(-n6cccn6)nc54)ccc32)ccn1 [Compound 105]
AKT1 WT; [1]
  IC50: 11.2 nM
AKT2; [1]
  IC50: 109 nM

## Nc1ncccc1-c1nc2ccc(-n3cccn3)nc2n1-c1ccc2c(c1)CC[C@@H]2NC1CCN(C(=O)C2CC2)C1 (some centres unmarked) [Compound 461]
AKT1 WT; [2]
  IC50: 109 nM
AKT2; [2]
  IC50: 3030 nM

## CN(C)[C@H]1CCc2cc(-n3c(-c4cccnc4N)nc4ccc(-n5cccn5)nc43)ccc21 [Compound 340]
AKT1 WT; [1]
  IC50: 37.7 nM
AKT2; [1]
  IC50: 1010 nM

## Nc1ncccc1-c1nc2ccc(-n3cccn3)nc2n1-c1ccc2c(c1)CC(F)C2NC1CCN(C(=O)C2CC2)CC1 (centres unmarked) [Compound 522]
AKT1 WT; [2]
  IC50: 524 nM
AKT2; [2]
  IC50: > 10000 nM

## Nc1ncccc1-c1nc2ccc(-n3cccn3)nc2n1-c1ccc2c(c1)CC[C@@H]2NC1CCCc2ccncc21 (some centres unmarked) [Compound 501]
AKT1 WT; [2]
  IC50: 20.5 nM
AKT2; [2]
  IC50: 695 nM

## Nc1ncccc1-c1nc2ccc(C#C[C@@H]3CCO3)nc2n1-c1ccc2c(c1)CC[C@@H]2NC(=O)c1ccc(C(F)F)nc1 [Compound 454]
AKT1 WT; [2]
  IC50: 37.5 nM
AKT2; [2]
  IC50: > 10000 nM

## Nc1ncccc1-c1nc2ccc(-n3cccn3)nc2n1-c1ccc2c(c1)CC[C@@H]2NC1CCN(C(=O)[C@H]2C[C@H]2F)CC1 [Compound 478]
AKT1 WT; [2]
  IC50: 126 nM
AKT2; [2]
  IC50: 3170 nM

## Cn1ccc(-c2cn([C@H]3CCc4cc(-n5c(-c6cccnc6N)nc6ccc(-n7cccn7)nc65)ccc43)nn2)n1 [Compound 197]
AKT1 WT; [1]
  IC50: 14.7 nM
AKT2; [1]
  IC50: 95.3 nM

## Cc1ccc(C(=O)N[C@H]2CCc3cc(-n4c(-c5cccnc5N)nc5c(C#N)cc(-n6nccn6)nc54)ccc32)cn1 [Compound 547]
AKT1 WT; [2]
  IC50: 28.3 nM
AKT2; [2]
  IC50: 1740 nM
